In patent EP2808337A1, “(E)-3-Aryl-3-oxoprop-1-enyl-2-phosphonic acid and its derivatives, methods for their preparation and their use” (Centrum Badan Molekularnych I Makromolekularnych Pan, priority 2013, dated 2014):

Columns and labels:
[1] = test system: DNA plasmid pcDNA 3.1 HisC (8.2 kb); assay: Digestion of plasmid DNA with restriction enzyme Bam H1 after incubation with compounds (agarose gel electrophoresis); assay type: biochemical; conditions: compound 2 or 20 µM, overnight at 37°C with 0.6 µg plasmid, then BamH1 2U/sample for 3 hours at 37°C; gel not shown
Method: The impact of compounds 1a and 1b has been tested on the digestion of DNA plasmid pcDNA 3.1 HisC (8.2 kb) with restriction enzyme Bam H1.
1. For this purpose, pcDNA 3.1 HisC plasmid DNA (0.6 µg) was dissolved in 1×BamH1 buffer and incubated overnight at 37°C with the following reference or test compounds:
The concentration of the reference and test compounds in each sample was 2 or 20 µM.
2. After overnight incubation, the reaction mixture was digested with BamH1 restriction enzyme (2U/sample) for 3 hours at 37°C. The total volume of the samples was 10 µL.
3. The reaction products were applied on 1% agarose gel and electrophoresis was performed in TAE buffer.

[2] = test system: synthetic DNA duplex (23 nt- 5'TCTTCAAGAATTCAGGTCCTGAT 3'); assay: Circular dichroism (CD) spectra of synthetic DNA duplex with test compounds; assay type: binding; conditions: immediately after addition; DNA duplex 2µM, compound 20µM, DMSO 0.2%, PBS, 23°C, 200-320 nm; Figure 1
Method: The ability of the test compounds 1a and 1b to interact with DNA was tested by the circular dichroism (CD) technique.
1. For this purpose, samples were prepared in PBS buffer containing: […] of synthetic DNA duplex (23 nt- 5'TCTTCAAGAATTCAGGTCCTGAT 3') or DNA of bovine thymus (0.2 mg/ml) and test compounds at a concentration of 20µM or 40µM for synthetic DNA duplex sample and thymus DNA sample, respectively. The samples contained 0.2% or 0.4% DMSO (for synthetic DNA duplex sample and thymus DNA sample, respectively), which is a solvent of the test compounds.
2. CD spectra (in the range from 200 nm to 320 nm) were recorded immediately after addition of the test compounds as well as after 1.5 h incubation. The measurement was carried out at 23°C in a quartz cuvette (optical path length 0.5 cm) using a spectroscope CD6 (Jobin-Yvon, France).
3. CD spectra of DNA incubated with the test compounds were compared with the control spectrum (spectrum was recorded for a sample of DNA (2µM or 0.2 mg/ml) in the presence of DMSO (final concentration of 0.2% or 0.4%).

Compound | interaction with plasmid DNA: resistance to digestion by the endonucleolytic enzyme Bam H1 [1] | changes of CD spectrum of duplex DNA compared to control (duplex DNA + DMSO) [2]
COc1cccc2c1C(=O)c1c(O)c3c(c(O)c1C2=O)C[C@@](O)(C(C)=O)C[C@@H]3O[C@H]1C[C@H](N)[C@H](O)[C@H](C)O1 [Daunorubicin, reference compound] | increasing its resistance to digestion | changing significantly its structure
COP(=O)(OC)/C(=C/c1ccc2ccc3cccc4ccc1c2c34)C(=O)c1ccc2c(c1)OCO2 [compound 1a] | increasing its resistance to digestion | changes compared to the control sample
O=C(/C(=C/c1ccc2ccc3cccc4ccc1c2c34)P(=O)(O)O)c1ccc2c(c1)OCO2 [compound 1b, (Z)-3-(benzo[d][1,3]dioxol-5-yl)-1-(pyrene-1-yl)-3-oxoprop-1-en-2-ylphosphonic acid] | increasing its resistance to digestion | changes compared to the control sample
